We go through four compounds from article PMC8236048, “Pharmaceutical design of a delivery system for the bacteriocin lacticin 3147” (Drug Delivery and Translational Research, 2021).

One series deals with T1, α-chymotrypsin (Bos taurus, UniProt P00766).
T1 construct: purchased Sigma-Aldrich Ireland Ltd
The experiment in a line: Enzyme degradation of lacticin 3147 by α-chymotrypsin (activity, MALDI-TOF). The series is classed as in vitro ADME. As to conditions: 3 h incubation, n = 3. On the procedure:
(§1) Lacticin 3147 production was confirmed by matrix-assisted laser desorption ionization-time of flight (MALDI-TOF) mass spectrometry using sinapinic acid as the matrix. About 0.7 μl of the matrix solution (sinapinic acid, 4 mg/ml in 50% acetone/50% methanol) was added to the target plate and left to evaporate (30 s) at ambient conditions. Individual peptides (Ltnα or Ltnβ) were resuspended in 70% IPA and mixed at a 1:1 volume ratio with a 10-mg/ml stock solution of sinapinic acid in 60% ACN with 0.1% TFA. About 0.3 μl of this peptide-matrix solution was then added to the matrix layer previously applied to the plate and evaporated at ambient conditions. The plate was inserted into a MALDI-TOF Ultraflex mass spectrometer (Bruker) and analysed using reflectron positive 700–3500 Da mode. 100 shots were fired at 88% intensity. This method was also used for the analyses of samples from the enzyme degradation studies.
(§2) Trypsin and α-chymotrypsin stock solutions (50 mg/ml) were resuspended in water. Pepsin (50 mg/ml) was resuspended in 0.02 M HCL. About 1 mg/ml individual solutions of Ltnα and Ltnβ in 70% IPA were filtered and diluted (1 in 20) in sterile PBS to give a final peptide concentration of 50 µg/ml. After this, 5.3 µl Ltnα and 4.6 µl Ltnβ were added to the same well of a 96-well plate. The pH of the lacticin 3147-pepsin solution was 2.29. Control wells consisting of Ltnα and Ltnβ together, Ltnα alone, and Ltnβ alone with no enzyme were included. The 96-well plate was incubated for 3 h at 37 °C to allow the enzyme to act. After incubation, the wells were filled to 50 μl with PBS and 150 μl of diluted bacterial cell culture (L. monocytogenes at an OD of 0.1) was added to each well. The final peptide concentration of 400 nM (1.31 µg/ml Ltnα, 1.14 µg/ml Ltnβ) was obtained when the wells were filled to 200 µl. […] The effect of the proteases pepsin, α-chymotrypsin, and trypsin on the lacticin 3147 peptides was determined by MALDI-TOF mass spectrometry. […] After 3 h, 1 µl was removed from each sample and it was analysed by MALDI-TOF mass spectrometry. […]

For another series, the system named is trypsin. Description: Enzyme degradation of lacticin 3147 by trypsin (activity, MALDI-TOF). The series is classed as in vitro ADME. The conditions noted are these: 3 h incubation, n = 3. The method, then: as §1
Trypsin and α-chymotrypsin stock solutions (50 mg/ml) were resuspended in water. Pepsin (50 mg/ml) was resuspended in 0.02 M HCL. […] The effect of the proteases pepsin, α-chymotrypsin, and trypsin on the lacticin 3147 peptides was determined by MALDI-TOF mass spectrometry. […] After 3 h, 1 µl was removed from each sample and it was analysed by MALDI-TOF mass spectrometry. […]

In the next series the target is T2, pepsin (Sus scrofa, UniProt P00791).
T2 construct: purchased Sigma-Aldrich Ireland Ltd
Description: Enzyme degradation of lacticin 3147 by pepsin (activity, MALDI-TOF, RP-HPLC). It counts as in vitro ADME. As to conditions: 3 h; for intact peptide after incubation with pepsin (MALDI-TOF): 25 mg/ml pepsin, 13.38 µg/ml Ltnα, 11.86 µg/ml Ltnβ, pH 2.29, n = 3; for concentration with versus without pepsin (RP-HPLC): 60 mg/ml pepsin, 62.5 µg/ml peptide, 37 °C, RP-HPLC UV 214 nm. The method, then:
as §1
All lacticin 3147 samples were filtered through a 0.2-µm PES filter before analysis by RP-HPLC using an Agilent 1200 Infinity Series HPLC (Agilent Technologies, USA). The HPLC separations were carried out on an Aeris 3.6 µm Peptide 100 Å 250 × 4.6 mm, liquid chromatography column with a flow rate of 0.8 ml/min, and with 0.1% trifluoroacetic acid (TFA) in water as aqueous phase-A and 0.1% TFA in acetonitrile (ACN) as organic phase-B. The total run time was 51 min. The mobile phase started with 30:70 A:B for 3 min and change linearly to 35:65 A:B over 30 min. The organic phase was then adjusted to 100% within 1 min and continued to flow for 5 min. After this, the mobile phase returned to the initial ratio to stabilize the chromatographic system. The detector was set at 214 nm. The peak area (mAU) was plotted against the concentration (1.56–500 µg/ml) to make a calibration curve. The coefficients of determination (R^2 values) were 0.9963 and 0.9983 for Ltnα and Ltnβ respectively. This method was subsequently used for quantitative analysis of Ltnα and Ltnβ.
as §2, with “µl. Blanks were set up in triplicate with media only and PBS only. The three control wells were also set up with bacterial culture and each enzyme only.” for “µl.”
Pepsin’s effect on lacticin 3147 was also investigated by RP-HPLC. […] After incubation, aliquots were taken, filtered, and analysed by RP-HPLC to determine if pepsin degrades Ltnα or Ltnβ to any extent.

A further series has as its system C. difficile. As to conditions: treatment failures of C. difficile infection after use of antibiotics; cited from earlier work. The text has this: Approximately 223,900 C. difficile infections and 12,800 resulting deaths were reported in the USA in 2017 [17]. Treatment failures and recurrences of infection after the use of antibiotics are increasingly common, with a 2–38% failure rate for vancomycin and 8–50% for metronidazole. A more virulent strain of C. d ...

T2 sequence (P00791 60-385): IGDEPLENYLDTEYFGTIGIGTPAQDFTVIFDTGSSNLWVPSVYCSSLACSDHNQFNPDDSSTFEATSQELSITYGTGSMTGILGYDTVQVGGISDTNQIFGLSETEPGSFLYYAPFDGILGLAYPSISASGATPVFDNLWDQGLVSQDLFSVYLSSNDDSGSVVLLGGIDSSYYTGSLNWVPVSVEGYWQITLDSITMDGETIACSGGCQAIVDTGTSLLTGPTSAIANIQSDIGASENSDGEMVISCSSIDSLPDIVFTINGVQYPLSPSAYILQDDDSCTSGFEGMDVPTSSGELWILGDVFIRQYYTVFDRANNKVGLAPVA

Take `CC=C(NC(=O)C(=O)CC)C(=O)N1CCC[C@H]1C(=O)N[C@@H](C)C(=O)NC(=CC)C(=O)N1CCC[C@H]1C(=O)N[C@@H](C)C(=O)N[C@H](C(=O)N[C@H](C)C(=O)N[C@H](C(=O)N[C@@H](CC(C)C)C(=O)N[C@H](C)C(=O)N[C@@H](C)C(=O)N[C@@H](Cc1ccc(O)cc1)C(=O)N[C@H](C(=O)NC1CSCC(C(=O)N2CCC[C@H]2C(=O)NC2C(=O)N[C@@H]([C@@H](C)O)C(=O)N[C@@H](CCCCN)C(=O)NC(C(=O)NC3C(=O)N[C@@H](CCCNC(=N)N)C(=O)N[C@@H](C)C(=O)NC(C(=O)O)CSC3C)CSC2C)NC(=O)[C@H]([C@@H](C)O)NC(=O)[C@H](CC(N)=O)NC(=O)[C@H]([C@@H](C)O)NC1=O)[C@@H](C)CC)[C@@H](C)CC)[C@@H](C)CC` (stereo partly shown) [Ltnβ]: the “intact peptide after incubation with α-chymotrypsin (MALDI-TOF)” value at α-chymotrypsin is reported as “no masses corresponding to intact”. Moreover, the “intact peptide after incubation with trypsin (MALDI-TOF)” value in the series on trypsin is “no masses corresponding to intact”. Also, on pepsin, the “intact peptide after incubation with pepsin (MALDI-TOF)” value was “Masses corresponding to Ltnα and Ltnβ can be seen”; the “concentration with versus without pepsin (RP-HPLC)” value is “not significantly different”.
Consider `CC=C(NC(=O)C1CSCC(N)C(=O)N1)C(=O)N[C@@H](CC(N)=O)C(=O)NC(=CC)C(=O)N[C@@H](Cc1ccccc1)C(=O)N[C@H](C)C(=O)N[C@@H](CC(C)C)C(=O)NC1CSCC(C(=O)NC2C(=O)N[C@@H](CC(C)C)C(=O)NC3C(=O)N[C@@H](Cc4c[nH]cn4)C(=O)N[C@@H](CCC(=O)O)C(=O)NC(CSC2C)C(=O)N[C@@H](CCSC)C(=O)N[C@@H](C)C(=O)N[C@@H](Cc2c[nH]c4ccccc24)C(=O)NC(C(=O)N[C@@H](CCCCN)C(=O)O)CSC3C)NC(=O)[C@H](Cc2c[nH]c3ccccc23)NC(=O)[C@H](C)NC(=O)CNC(=O)[C@H](CC(N)=O)NC(=O)[C@H](CC(N)=O)NC(=O)CNC(=O)[C@H](Cc2c[nH]c3ccccc23)NC(=O)[C@H](Cc2ccc(O)cc2)NC(=O)[C@H](CC(=O)O)NC1=O` (stereo partly shown) [Ltnα], for which the “intact peptide after incubation with α-chymotrypsin (MALDI-TOF)” value at α-chymotrypsin was “no masses corresponding to intact”. Further, the “intact peptide after incubation with trypsin (MALDI-TOF)” value with trypsin was “no masses corresponding to intact”. Further, at pepsin, the “intact peptide after incubation with pepsin (MALDI-TOF)” value is “Masses corresponding to Ltnα and Ltnβ can be seen”; the “concentration with versus without pepsin (RP-HPLC)” value is “not significantly different”.
Turning to `Cc1ncc([N+](=O)[O-])n1CCO` [metronidazole], the failure rate in the series on C. difficile is 8–50%.
As for `CN[C@H](CC(C)C)C(=O)N[C@H]1C(=O)N[C@@H](CC(N)=O)C(=O)N[C@H]2C(=O)N[C@H]3C(=O)N[C@H](C(=O)N[C@H](C(=O)O)c4cc(O)cc(O)c4-c4cc3ccc4O)[C@H](O)c3ccc(c(Cl)c3)Oc3cc2cc(c3O[C@@H]2O[C@H](CO)[C@@H](O)[C@H](O)[C@H]2O[C@H]2C[C@](C)(N)[C@H](O)[C@H](C)O2)Oc2ccc(cc2Cl)[C@H]1O` [vancomycin], in the series with C. difficile, the failure rate is 2–38%.
